Measurements published in PMC5872235 (2018).
Values after ≈ are worked out from the molar mass of the structure shown. Like-named read-outs stand apart in the source and are kept apart here. Peptide text beside a SMILES is read from it.

Experiments:
[1] = system: Superantigen positive Staphylococcus aureus (n = 52)
[2] = system: Superantigen negative Staphylococcus aureus (n = 48)
[3] = system: Superantigen negative Staphylococcus aureus (n = 48); test: microbe, parasite or virus in culture; conditions: 18 h
[4] = system: Staphylococcus aureus strains isolated from control group; test: microbe, parasite or virus in culture; conditions: 18 h
[5] = system: Staphylococcus aureus strains isolated from atopic dermatitis (AD) patients; test: microbe, parasite or virus in culture; conditions: 18 h
[6] = system: S. aureus in patients with atopic dermatitis; type: cell-based, Staphylococcus aureus
[7] = system: Superantigen positive Staphylococcus aureus (n = 52); test: microbe, parasite or virus in culture; conditions: 18 h
[8] = system: Staphylococcus aureus strains isolated from control group
[9] = system: S. aureus in control group; type: cell-based, Staphylococcus aureus
[10] = system: Staphylococcus aureus strains isolated from atopic dermatitis (AD) patients
[11] = Superantigen positive (n = 52, 18 h)
[12] = Superantigen negative (n = 48, 18 h)

Compound	MIC50 [3] [µg/mL]	MIC90 [3] [µg/mL]	MIC50 [4] [µg/mL]	MIC90 [4] [µg/mL]	MIC50 [5] [µg/mL]	MIC90 [5] [µg/mL]	Resistance (%), resistant strains [6] [%]	MIC50 [7] [µg/mL]	MIC90 [7] [µg/mL]	MIC Range [1] [µg/mL]	MIC Range [8] [µg/mL]	MIC Range [2] [µg/mL]	Susceptibility of all strains, in words [9]	MIC Range [10] [µg/mL]	other results
CC[C@H](C)[C@H](NC(=O)[C@H](CCCCN)NC(=O)[C@H](CCC(=O)O)NC(=O)[C@H](CCCCN)NC(=O)[C@H](CO)NC(=O)[C@H](CCCCN)NC(=O)[C@H](CCCNC(=N)N)NC(=O)[C@H](Cc1ccccc1)NC(=O)[C@H](Cc1ccccc1)NC(=O)[C@H](CC(=O)O)NC(=O)CNC(=O)[C@H](CC(C)C)NC(=O)[C@@H](N)CC(C)C)C(=O)NCC(=O)N[C@@H](CCCCN)C(=O)N[C@@H](CCC(=O)O)C(=O)N[C@@H](Cc1ccccc1)C(=O)N[C@@H](CCCCN)C(=O)N[C@@H](CCCNC(=N)N)C(=O)N[C@H](C(=O)N[C@H](C(=O)N[C@@H](CCC(N)=O)C(=O)N[C@@H](CCCNC(=N)N)C(=O)N[C@H](C(=O)N[C@@H](CCCCN)C(=O)N[C@@H](CC(=O)O)C(=O)N[C@@H](Cc1ccccc1)C(=O)N[C@@H](CC(C)C)C(=O)N[C@@H](CCCNC(=N)N)C(=O)N[C@@H](CC(N)=O)C(=O)N[C@@H](CC(C)C)C(=O)N[C@H](C(=O)N1CCC[C@H]1C(=O)N[C@@H](CCCNC(=N)N)C(=O)N[C@H](C(=O)N[C@@H](CCC(=O)O)C(=O)N[C@@H](CO)C(=O)O)[C@@H](C)O)C(C)C)[C@@H](C)CC)C(C)C)[C@@H](C)CC [LL-37]															MIC50 [1, 11]: 64 µg/mL (≈ 14.2 µM); MIC90 [1, 11]: 256 µg/mL (≈ 57 µM); MIC50 [2, 12]: 128 µg/mL (≈ 28.5 µM); MIC90 [2, 12]: > 512 µg/mL
CCC[C@@H]1C[C@@H](C(=O)N[C@@H]([C@H]2O[C@H](SC)[C@H](O)[C@@H](O)[C@H]2O)[C@@H](C)O)N(C)C1 [Lincomycin, lincomycin]	1 (≈ 2.46 µM)	64 (≈ 157 µM)	0.5 (≈ 1.23 µM)	> 512	1 (≈ 2.46 µM)	64 (≈ 157 µM)	37.5	1 (≈ 2.46 µM)	16 (≈ 39.4 µM)						
CC(=O)NC[C@H]1CN(c2ccc(N3CCOCC3)c(F)c2)C(=O)O1 [Linezolid, linezolid]	1 (≈ 2.96 µM)	4 (≈ 11.9 µM)	2 (≈ 5.93 µM)	4 (≈ 11.9 µM)	1 (≈ 2.96 µM)	4 (≈ 11.9 µM)		1 (≈ 2.96 µM)	2 (≈ 5.93 µM)	0.5 to 4	1 to 4	0.25 to 4	sensitive	0.25 to 32	Resistance of isolates, in words [6]: none of the isolates were resistant
C/C(=C\C(=O)OCCCCCCCCC(=O)O)C[C@@H]1OC[C@H](C[C@@H]2O[C@H]2[C@@H](C)[C@H](C)O)[C@@H](O)[C@H]1O [Mupirocin, mupirocin]	0.25 (≈ 0.499 µM)	512 (≈ 1020 µM)	0.25 (≈ 0.499 µM)	32 (≈ 63.9 µM)	0.5 (≈ 0.999 µM)	> 512	17.5	0.5 (≈ 0.999 µM)	> 512		0.125 to 32		sensitive		
CC[C@H](C)[C@H](NC(=O)CNC(=O)[C@H](CO)NC(=O)[C@H](CC(C)C)NC(=O)[C@@H](NC(=O)[C@H](CCCNC(=N)N)NC(=O)CNC(=O)[C@@H](NC(=O)[C@H](CC(C)C)NC(=O)[C@@H]1CCCN1C(=O)[C@H](CC(C)C)NC(=O)[C@@H](N)Cc1ccccc1)[C@@H](C)CC)C(C)C)C(=O)N[C@@H](CC(C)C)C(N)=O [Temporin A] (H-FLPLIGRVLSGIL-NH2)															MIC50 [1, 11]: 8 µg/mL (≈ 5.73 µM); MIC90 [1, 11]: 16 µg/mL (≈ 11.5 µM); MIC Range [1, 11]: 2 to 64 µg/mL; MIC50 [2, 12]: 8 µg/mL (≈ 5.73 µM); MIC90 [2, 12]: 32 µg/mL (≈ 22.9 µM); MIC Range [2, 12]: 4 to 32 µg/mL
CN(C)[C@@H]1C(O)=C(C(N)=O)C(=O)[C@@]2(O)C(O)=C3C(=O)c4c(O)cccc4[C@@](C)(O)[C@H]3C[C@@H]12 [Tetracycline, tetracycline]	0.5 (≈ 1.13 µM)	32 (≈ 72 µM)	0.5 (≈ 1.13 µM)	32 (≈ 72 µM)	0.5 (≈ 1.13 µM)	32 (≈ 72 µM)	15.5	0.25 (≈ 0.563 µM)	32 (≈ 72 µM)	0.0625 to 32	0.125 to 32	0.0625 to 32		0.125 to 64	
CN[C@H](CC(C)C)C(=O)N[C@H]1C(=O)N[C@@H](CC(N)=O)C(=O)N[C@H]2C(=O)N[C@H]3C(=O)N[C@H](C(=O)N[C@H](C(=O)O)c4cc(O)cc(O)c4-c4cc3ccc4O)[C@H](O)c3ccc(c(Cl)c3)Oc3cc2cc(c3O[C@@H]2O[C@H](CO)[C@@H](O)[C@H](O)[C@H]2O[C@H]2C[C@](C)(N)[C@H](O)[C@H](C)O2)Oc2ccc(cc2Cl)[C@H]1O [Vancomycin, vancomycin]	1 (≈ 0.69 µM)	2 (≈ 1.38 µM)	1 (≈ 0.69 µM)	1 (≈ 0.69 µM)	0.5 (≈ 0.345 µM)	2 (≈ 1.38 µM)		0.5 (≈ 0.345 µM)	1 (≈ 0.69 µM)	0.125 to 2	0.25 to 1	0.125 to 2	sensitive	0.125 to 8	Resistance of isolates, in words [6]: none of the isolates were resistant
